# Reference: patent US20090176776A1, “SMALL MOLECULE INHIBITORS OF HIV-1 CAPSID ASSEMBLY” (UNIVERSITY OF ALABAMA AT BIRMINGHAM, priority 2005, published 2009)
# Key:
# HIV-1YU2 = assay: Anti-HIV assay (multiple round), luciferase expression in Luc-M7 cells; format: cell-based; settings: Luc-M7 cells infected with HIV-1YU2, 6 days, Bright-Glo
# Experimental: (§1) Anti-HIV Assays (Multiple Round). The inhibitory effects of the tested compounds on HIV-1YU2 replication were determined by the level of luciferase expression after 6 days of infection using Bright-Glo assay (Promega). An amount of 1.5×10^4 Luc-M7 (a gift from Ned Landau) cells per ml were infected with HIV-1YU2 at a multiplicity of infection (MOI) of 3. The HIV-1 infected ([…] compound) or mock-infected (0-300 μM compound) Luc-M7 cells were placed in 96-well culture plates (100 μl/well) with 100 μl of various concentrations of the compounds with 20 μg/ml DEAE Dextran in triplicate and incubated at 37° C. under 5% CO2 at 100% humidity. After 6 days, cell viability was quantified by Cell-Titer Glo assay (Promega). […] On day 5 cell viability was determined in the mock-infected cells. FIGS. 12-18 show the anti-HIV assays for the examples of chemical compounds used according to the invention. After in-vitro assay, the chemical compounds in FIGS. 12-18 were selected for screening for cell viability and toxicity. Jurkat cells assay was used as screening assay. […] After five days, GFP expression was read. Cell viability was monitored with Alamar Blue assay. Luc M7 assay was designed to measure inhibitory activity of the chemical compounds to viral replication. After infection of cells with YU2 virus, plate cells in 96-well plate in the presence of six concentration of compounds in DMSO. At day 6, the number of cells in wells were read with Cell Titer Glo kit or by counting the number of cells infected with Bright Glo kit. 293T cells assay was designed to determine the toxicity. 293T cells were transfected with NL43. After four hours, transfected cells were plated in 96-well plate in DMSO and 2 μM Indinavir. 72 hours later, viral supernatant was collected and plated on J[…].
# [1] = biological target: T1, recombinant HIV-1 capsid protein (CA) (Human immunodeficiency virus type 1 group M subtype B, UniProt P12493); assay: Turbidity based HIV-1 capsid assembly assay; format: biochemical; settings: initial assembly rate by turbidity; twofold dilutions over a 128 fold range; 30 μM CA, 2.25 M NaCl
# T1 construct: recombinant HIV-1 capsid protein (CA); made in house
# Experimental: The kinetics can be followed by monitoring the increase of turbidity using a spectrophotometer. The IC50 of the chemical compound tested is determined by titration. As the C-domain inhibits capsid assembly by forming CA-C-domain heterodimers, the effect of added C-terminal domain on the rate of assembly was evaluated by plotting the rate of assembly versus C-terminal domain concentration.
# Soluble HIV-1 capsid protein can be triggered to assemble into tubes similar in diameter and morphology to intact cores by dilution into high iconic strength buffer. The kinetics of assembly can be followed by monitoring the increase in turbidity using a spectrophotometer (Lanham et al., J. Virol., 76:6900, 2002). This assembly assay was adapted to a 96-well, microplate format to allow for medium-throughput screening of compounds by measuring turbidity in a Nepeloskan Ascent plate reader (Thermo Electron Corp., UK). A DIVERSet™ library of 10,000 low molecular weight, “drug-like” compounds was purchased from ChemBridge Corp. (San Diego, Calif.). This library was selected for its potential bioavailability and application based on a pharmacophore diversity analysis. The average molecular weight of the compounds is 347 g/mol, the range being 200-596 g/mol. The compounds came plated in 96-well plates and solubilized in DMSO at 5 mgs/mL.
# Turbidity based assay. A 1.5 μL aliquot of compound was diluted 90-fold into 50 mM Na2HPO4, […] buffer, pH 8 in an optically clear 96-well plate. The plate containing compounds and salt was read to check for compound solubility and to serve as a background reading for the assay. To initiate the assembly reaction, 15 μL of […] stock (in 50 mM Na2HPO4 pH 8) of recombinant HIV-1 capsid protein (CA), purified as described (Lanman et al., J. Virol., 76:6900, 2002), was added to each well of the 96-well plate using a multi-channel pipettor. […] Furthermore, the halftime of the assembly reaction is ˜5 minutes so reading the plate in thirds prevented loss of initial rate data. Therefore, CA was added to the first 4 lanes, the reactions followed for ten minutes, reading was paused, CA was then added to the next four lanes and the process repeated. Instrument settings are as follows: PMT gain of 500 V, lamp at 10V, and integration time of 60 ms. The data were exported to a custom designed Excel spreadsheet that allowed simultaneous plotting of kinetic curves.
# Recombinant CA protein was purified as previously described and stored at 300 μM at −80° C. A turbidity based assembly assay, described above, was adapted to a 96-well, microplate format to allow for medium-throughput screening of compounds in a Nepheloskan Ascent plate reader (Thermo Electron Corp., UK). A 1.5 μL aliquot of compound or DMSO was diluted 90-fold into 50 mM Na2HPO4, 2.25 M NaCl buffer, pH 8 in an optically clear 96-well plate. To initiate the assembly reaction, 15 μL of the 300 μM stock (in 50 mM Na2HPO4 pH 8) of recombinant HIV-1 capsid protein (CA), was added to each well of the 96-well plate using a multi-channel pipettor.
# [2] = MTS score (Table 1; method not described); format: cell-based; settings: for MTS AVG 4 (No Effect): average of the MTS scores at 10, 30 and 100 μM; for MTS 10 μM: score at nominal 10 μM; for MTS 10 μM / MTS 30 μM / MTS 100 μM: 4 = No Effect; for MTS 30 μM: score at nominal 30 μM; for MTS 100 μM: score at nominal 100 μM
# Luc-M7 cells = assay: Cell viability of Luc-M7 cells (Cell-Titer Glo); format: cell-based; parameters: unit: μM; settings: mock-infected Luc-M7 cells, 6 days
# Experimental: as §1
SMILES,IC50 (HIV-1YU2),IC50 [1],MTS AVG 4 (No Effect) [2],MTS 10 μM [2],MTS 30 μM [2],MTS 100 μM [2],TC50 (Luc-M7 cells)
CC(=NNC(=O)C(O)c1ccccc1)c1ccc2c(c1)CCCC2 (stereo not drawn) [Compound 6],15.4 µM,9 µM,3.000,4,3,2,36.8
Cc1cc(F)ccc1NCc1ccccn1 [Compound 16],17.8 µM,95 µM,3.000,4,4,1,66.5
Cc1ccc(C(C)C)c(OCC(=O)NN=Cc2ccc(C(=O)O)cc2)c1 [Compound 65],,14 µM,3.667,4,4,3,
CC(C)(C)c1ccc(OCC(=O)NN=Cc2ccc(O)c([N+](=O)[O-])c2)cc1 [Compound 38],,35 µM,3.333,4,3,3,
O=C1Nc2c(Br)cc(Br)cc2C1=NNC(=O)C(O)c1ccccc1 (stereo not drawn) [Compound 50],,15 µM,2.333,4,2,1,
O=C(O)c1ccc2c(c1)C1C=CCC1C(c1ccc([N+](=O)[O-])cc1)N2 (stereo not drawn) [Compound 41],2.1 µM,18 µM,3.667,4,4,3,65.8
O=C(O)c1ccc2c(c1)C1C=CCC1C(c1cccc([N+](=O)[O-])c1)N2 (stereo not drawn) [Compound 59],4.5 µM,22 µM,4.000,4,4,4,84.1
Nc1nc(-c2ccccc2Cl)cs1 [Compound 15],19.8 µM,60 µM,3.000,4,3,2,58.9
O=C(NN=Cc1c(Br)cc(Br)c(O)c1Br)c1ccccc1[N+](=O)[O-] [Compound 23],,12 µM,3.667,4,4,3,
CCOC(=O)c1c(N2C(=O)C=CC2=O)sc2c1CCCC2 [Compound 8],13.3 µM,4 µM,3.667,4,4,3,27.7
CC(C)(C)c1ccc(OCCN2CCOCC2)cc1 [Compound 60],6.98 µM,75 µM,3.333,4,4,2,125.3
Cc1ccc(OCC(=O)NN=Cc2ccncc2)cc1 [Compound 56],,40 µM,3.333,4,3,3,
COc1ccc(OCC(=O)NN=Cc2cc(O)c(O)c(Br)c2)c(Br)c1 [Compound 71],,24 µM,2.333,4,2,1,
O=C(COc1ccc2ccccc2c1)NN=Cc1cc(O)c(O)c(Br)c1 [Compound 53],,33 µM,2.000,4,1,1,
Oc1ccc(C=NNc2cc(N3CCOCC3)nc(N3CCOCC3)n2)c(O)c1 [Compound 9],,7 µM,2.000,4,1,1,
COc1c(O)ccc(C=NNC(=O)COc2cccc(C)c2)c1[N+](=O)[O-] [Compound 39],,28 µM,2.333,4,2,1,
O=C(NN=Cc1cc(Cl)cc([N+](=O)[O-])c1O)c1ccc2c(c1)OCO2 [Compound 37],,,2.000,4,1,1,
Cc1ccc(OCC(=O)NN=Cc2c(Br)cc(Br)c(O)c2Br)cc1 [Compound 3],,7 µM,3.667,4,3,4,
Cc1ccc(NCC(=O)NN=Cc2c(Br)cc(Br)c(O)c2Br)cc1 [Compound 17],,11 µM,2.333,4,1,2,
